Patent publication US11207312B2, “Metallo-beta-lactamase inhibitors and methods of use thereof” (priority 2017, dated 2021)
Read-outs that look alike come from different tables or passages of the source.

Experiments:
NDM-1 = NDM-1 (Klebsiella pneumoniae, UniProt C7C422); assay: biochemical; type: biochemical; conditions: CCF2-FA fluorescence assay, 2 hours at 25° C.
How it was run: (§1)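 In pH 7 phosphate buffer (100 mM) with 10 μM ZnSO4 and 0.005% Tween-20, CCF2-FA hydrolysis (1.25 μM) by 1 pM NDM-1, 2 pM IMP-1 or 30 pM VIM-1 was run 2 h at 25° C with inhibitor from 20 to 0.00063 μM. Ex 405/em 460 nm signal fitted to a 4-parameter curve for IC50.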

VIM-1 = VIM-1 (Pseudomonas aeruginosa (strain ATCC 15692 / DSM 22644 / CIP 104116 / JCM 14847 / LMG 12228 / 1C / PRS 101 / PAO1), UniProt A0A0F7KYQ8); assay: biochemical; conditions: CCF2-FA fluorescence assay, 2 hours at 25° C.; read-out: VIM1 IC50
How it was run: as §1

IMP-1 = IMP-1 (Serratia marcescens, UniProt P52699); assay: biochemical; conditions: CCF2-FA fluorescence assay, 2 hours at 25° C.; read-out: IMP1 IC50
IMP-1, sequence (P52699 whole entry, looked up, species assumed): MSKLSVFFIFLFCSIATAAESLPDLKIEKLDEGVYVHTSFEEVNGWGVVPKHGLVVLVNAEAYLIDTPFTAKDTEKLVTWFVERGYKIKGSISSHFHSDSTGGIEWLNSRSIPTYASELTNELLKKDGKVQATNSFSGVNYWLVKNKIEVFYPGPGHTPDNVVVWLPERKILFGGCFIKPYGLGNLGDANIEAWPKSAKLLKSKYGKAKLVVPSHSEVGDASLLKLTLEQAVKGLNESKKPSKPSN
How it was run: as §1

[1] = tested on: P. aeruginosa MB9798 (efflux+, IMP-1 plasmid); conditions: for MB9798 MITC95 P. aeruginosa uM Efflux WT: efflux + (MB9798) strain, imipenem at 2 μg/mL, in the presence of a class A, C, D serine β-lactamase inhibitor closely related to relebactam; for Efflux ratio: fold difference between efflux+ (MB9798) and efflux− (MB9799) strains
How it was run: (§2)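 PAO1-derived isogenic pair (oprD+, inducible AmpC), efflux+ MB5919 or efflux− MB5890 parent, carrying an electroporated IMP-1 plasmid from a clinical isolate. Microbroth MIC with fixed imipenem and/or ceftazidime (usually CLSI breakpoint) plus fixed class A/C inhibitor; MBL inhibitor serially titrated, concentration restoring susceptibility recorded.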

VIM-2 = VIM-2 (Escherichia coli, UniProt Q5U7L7); assay: biochemical
[2] = tested on: P. aeruginosa MB9799 (efflux-, IMP-1 plasmid); type: cell-based, Pseudomonas aeruginosa; conditions: efflux − (MB9799) strain; imipenem at 2 μg/mL; in the presence of a class A, C, D serine β-lactamase inhibitor closely related to relebactam
How it was run: as §2

[3] = tested on: Serratia marcescens expressing IMP-1 (CL5741); type: cell-based; conditions: with imipenem 1 μg/ml; 95% inhibition of bacterial growth
How it was run: (§3)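 Colonies from sheep-blood agar plates are resuspended in saline, then diluted 1:100 in 1.1× CAMHB. Bacteria receive imipenem (1 μg/ml) and test compound, then incubate 22–24 h at 35 °C. Potentiation is reported as MITC95 from absorbance.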

[4] = tested on: Klebsiella pneumoniae expressing VIM-1 (IHMA599644); type: cell-based; conditions: with imipenem 1 μg/ml; 95% inhibition of bacterial growth
How it was run: as §3

[5] = tested on: Escherichia coli expressing NDM-1 (CLB30016); type: cell-based; conditions: with imipenem 1 μg/ml; 95% inhibition of bacterial growth
How it was run: as §3

[6] = CCF2-FA fluorescence assay, read-out: VIM2 IC50

NDM-1, sequence (C7C422 whole entry, looked up, species assumed): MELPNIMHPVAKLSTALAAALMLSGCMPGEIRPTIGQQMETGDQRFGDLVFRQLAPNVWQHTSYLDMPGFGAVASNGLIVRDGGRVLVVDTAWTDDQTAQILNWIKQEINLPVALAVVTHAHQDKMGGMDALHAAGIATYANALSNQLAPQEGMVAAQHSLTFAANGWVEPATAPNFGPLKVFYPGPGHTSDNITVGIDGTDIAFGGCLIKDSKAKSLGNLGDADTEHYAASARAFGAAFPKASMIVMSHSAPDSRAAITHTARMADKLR

SMILES | IC50 (NDM-1) [nM] | IC50 (VIM-1) [nM] | IC50 (IMP-1) [nM] | MB9798 MITC95 P. aeruginosa uM Efflux WT [1] [µM] | Efflux ratio [1] | IC50 (VIM-2; [6]) [nM] | MB9799 MITC95 P. aeruginosa uM Efflux Mutant [2] [µM] | CL5741 S. marcescens MITC95 IMP [3] [µM] | IHMA599644 K. pneumoniae MITC95 VIM [4] [µM] | CLB30016 E. coli MITC95 NDM [5] [µM] | IC50 (VIM-2; VIM2 IC50, CCF2-FA fluorescence assay) [nM]
NC[C@@H](O)CNS(=O)(=O)c1ccc(N[C@@H]2CCC[C@H]2N)c(-c2nn[nH]n2)c1S(N)(=O)=O [Example 179, N1-((R)-3-amino-2-hydroxypropyl)-4-(((1R,2R)-2-aminocyclopentyl)amino)-3-(2H-tetrazol-5-yl)benzene-1,2-disulfonamide] | 26.2 | 49.9 | 69.2 | 25.00 | 4.00 | 83.1 | 6.25 | 6.25 | 12.50 | 0.78 | 
NS(=O)(=O)c1c(S(=O)(=O)N[C@@H]2CCNC2)ccc(NCC2CCNCC2)c1-c1nn[nH]n1 [Example 183, (R)-4-((piperidin-4-ylmethyl)amino)-N1-(pyrrolidin-3-yl)-3-(2H-tetrazol-5-yl)benzene-1,2-di sulfonamide] | 6.26 | 5.89 | 12.4 | 3.13 | 2.67 | 69.7 | 1.17 | 1.56 | 2.34 | 1.17 | 
C[C@H](CN)NS(=O)(=O)c1ccc(N2CCC(CCN)CC2)c(-c2nn[nH]n2)c1S(N)(=O)=O [Example 185, (R)-4-(4-(2-aminoethyl)piperidin-1-yl)-N1-(1-aminopropan-2-yl)-3-(2H-tetrazol-5-yl)benzene-1,2-disulfonamide] | 0.33 | 0.04 | 0.6 | 0.78 | 1.00 | 0.71 | 0.78 | 1.56 | 1.56 | 0.78 | 
NCC1CCN(c2ccc(S(=O)(=O)N[C@H](CN)CO)c(S(N)(=O)=O)c2-c2nn[nH]n2)CC1 [Example 186, (R)-N1-(1-amino-3-hydroxypropan-2-yl)-4-(4-(aminomethyl)piperidin-1-yl)-3-(2H-tetrazol-5-yl)benzene-1,2-disulfonamide] | 18.7 | 2.85 | 40.6 | 1.56 | 2.00 | 68.7 | 0.78 | 1.56 | 1.56 | 3.13 | 
NCCC1CCN(c2ccc(S(=O)(=O)N[C@@H](CN)CO)c(S(N)(=O)=O)c2-c2nn[nH]n2)CC1 [Example 187, (S)-N1-(1-amino-3-hydroxypropan-2-yl)-4-(4-(2-aminoethyl)piperidin-1-yl)-3-(2H-tetrazol-5-yl)benzene-1,2-disulfonamide] | 0.13 | 0.03 | 0.24 | 0.39 | 1.00 | 0.49 | 0.39 | 0.78 | 0.78 | 0.78 | 
NCCC1CCN(c2ccc(S(=O)(=O)N[C@H](CN)CO)c(S(N)(=O)=O)c2-c2nn[nH]n2)CC1 [Example 188, (R)-N1-(1-amino-3-hydroxypropan-2-yl)-4-(4-(2-aminoethyl)piperidin-1-yl)-3-(2H-tetrazol-5-yl)benzene-1,2-disulfonamide] | 2.86 | 0.13 | 3.68 | 0.78 | 1.00 | 4.85 | 0.78 | 0.78 | 1.56 | 0.78 | 
NCC1CCN(c2ccc(S(=O)(=O)N[C@@H](CN)CO)c(S(N)(=O)=O)c2-c2nn[nH]n2)CC1 [Example 189, (S)-N1-(1-amino-3-hydroxypropan-2-yl)-4-(4-(aminomethyl)piperidin-1-yl)-3-(2H-tetrazol-5-yl)benzene-1,2-disulfonamide] | 0.3 | 0.06 | 0.77 | 0.78 | 2.00 | 2.31 | 0.39 | 0.78 | 0.78 | 0.39 | 
NCCNS(=O)(=O)C1CCN(c2ccc(S(=O)(=O)NC[C@H](O)CN)c(S(N)(=O)=O)c2-c2nn[nH]n2)CC1 [Example 190, (R)—N1-(3-amino-2-hydroxypropyl)-4-(4-(N-(2-aminoethyl)sulfamoyl)piperidin-1-yl)-3-(2H-tetrazol-5-yl)benzene-1,2-disulfonamide] | 0.67 | 0.09 | 0.61 | 0.78 | 1.00 | 0.85 | 0.78 | 0.78 | 1.56 | 3.13 | 
NS(=O)(=O)c1c(S(=O)(=O)N[C@@H]2CCNC2)ccc(N2CCNC2=S)c1-c1nn[nH]n1 [Example 191, (R)—N1-(pyrrolidin-3-yl)-3-(2H-tetrazol-5-yl)-4-(2-thioxoimidazolidin-1-yl)benzene-1,2-disulfonamide] | 0.94 | 0.21 | 25.2 | 6.25 | 4.00 | 1.15 | 1.56 | 1.56 | 3.13 | 0.78 | 
NC[C@@H](O)CNS(=O)(=O)c1ccc(N[C@H]2C[C@H](N)C2)c(-c2nnn[nH]2)c1S(N)(=O)=O [Example 192, (R)—N1-(3-amino-2-hydroxypropyl)-4-((3-aminocyclobutyl)amino)-3-(1H-tetrazol-5-yl)benzene-1,2-disulfonamide] | 66.3 | 67.5 | 97 | 6.25 | 2.00 |  | 3.13 | 3.13 | 6.25 | 1.56 | 200
